Results reported in patent publication US20250255848A1, “SUBSTITUTED 6,7-DIHYDRO-5H-BENZO[7]ANNULENE DERIVATIVES, PROCESSES FOR THEIR PREPARATION AND THERAPEUTIC USES THEREOF” (SANOFI, priority 2022, published 2025).

Molecular target: ERα (Homo sapiens (Human), UniProt P03372)
Test: Estrogen receptor degradation activity: breast cancer cell ERα in cell western assay
Type: cell-based
Settings: MCF7 cells; for % Degradation At 0.3 μM: 4 hours, normalised to fulvestrant 0.1 μM and DMSO
Procedure: Said test involves measuring the in vitro degradation activity of the compounds of the Table 1a.
The measurements of the degradation activities were made using a breast cancer cell ERα in cell western assay as described hereunder.
MCF7 cells (ATCC) were seeded in 384 wells microplate (collagen coated) at a concentration of 10000 cells/30 μL per well in red phenol free MEM alpha medium (invitrogen) containing 5% charcoal dextran striped FBS. The following day, 9 points serial 1:5 dilution of each compound was added to the cells in 2.5 μL at final concentrations ranging from 0.3-0.0000018 μM (in table 2), or 0.1 μM for fulvestrant (using as positive control). At 4 hours post compound addition the cells were fixed by adding 25 μL of formalin (final concentration 5% formalin containing 0.1% triton) for 10 minutes at room temperature and then washed twice with PBS. Then, 50 μL of LI-COR blocking buffer containing 0.1% Triton was added to plate for 30 minutes at room temperature. LI-COR blocking buffer was removed and cells were incubated overnight at cold room with 50 μL anti-ER rabbit monoclonal antibody (Thermo scientific MA1-39540) diluted at 1:1000 in LI-COR blocking buffer containing 0.1% tween-20. Wells which were treated with blocking buffer but no antibody were used as background control. Wells were washed twice with PBS (0.1% tween-20) and incubated at 37° C. for 60 minutes in LI-COR (0.1% tween-20) containing goat anti-rabbit antibody Alexa 488 (1:1000) and Syto-64 a DNA dye (2 μM final concentration). Cells were then washed 3 times in PBS and scanned in ACUMEN explorer (TTP-Labtech). Integrated intensities in the green fluorescence and red fluorescence were measured to determine the levels of ERα and DNA respectively.
The degradation activity with respect to estrogen receptors in this test is given by the concentration which degrades 50% of the estrogen receptor (or IC50) in nM.
The % of ERα levels decrease were determined as follows: % inhibition=100*(1−(sample−fulvestrant:DMSO−fulvestrant)).

[1] = 4 hours post compound addition, concentration which degrades 50% of the estrogen receptor

Sequence of ERα (P03372 whole entry): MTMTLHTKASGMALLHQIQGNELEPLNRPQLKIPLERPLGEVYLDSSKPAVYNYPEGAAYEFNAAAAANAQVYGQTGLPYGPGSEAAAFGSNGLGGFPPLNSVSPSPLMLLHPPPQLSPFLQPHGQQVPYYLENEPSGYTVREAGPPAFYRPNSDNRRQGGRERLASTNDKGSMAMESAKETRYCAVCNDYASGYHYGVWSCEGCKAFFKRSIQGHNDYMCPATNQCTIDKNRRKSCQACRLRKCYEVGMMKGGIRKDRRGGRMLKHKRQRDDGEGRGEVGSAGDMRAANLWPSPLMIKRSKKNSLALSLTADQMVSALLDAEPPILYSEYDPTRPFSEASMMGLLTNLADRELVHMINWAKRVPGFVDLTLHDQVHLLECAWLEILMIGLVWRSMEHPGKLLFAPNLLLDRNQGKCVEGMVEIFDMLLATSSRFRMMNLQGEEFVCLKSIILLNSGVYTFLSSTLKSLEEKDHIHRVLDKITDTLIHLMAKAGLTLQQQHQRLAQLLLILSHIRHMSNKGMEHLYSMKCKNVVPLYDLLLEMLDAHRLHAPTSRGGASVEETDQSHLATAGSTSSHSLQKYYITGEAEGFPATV

Compound: Cc1cc(C)c(C2=C(c3ccc(C=C4CN(CCCF)C4)cc3)c3ccc(C(=O)O)cc3CCC2)c(F)c1 [Compound 76, 8-(2-fluoro-4,6-dimethylphenyl)-9-(4-((1-(3-fluoropropyl)azetidin-3-ylidene)methyl)phenyl)-6,7-dihydro-5H-benzo[7]annulene-3-carboxylic acid]
- % Degradation At 0.3 μM: 95%
- IC50 [1]: 200 pM

Compound: COc1c(C)cccc1C1=C(c2ccc(C=C3CN(CCCF)C3)cc2)c2ccc(C(=O)O)cc2CCC1 [Compound 3, 9-(4-((1-(3-fluoropropyl)azetidin-3-ylidene)methyl)phenyl)-8-(2-methoxy-3-methylphenyl)-6,7-dihydro-5H-benzo[7]annulene-3-carboxylic acid]
- % Degradation At 0.3 μM: 90%
- IC50 [1]: 700 pM

Compound: CC1(C)CCC(C2=C(c3ccc(C=C4CN(CCCF)C4)cc3)c3ccc(C(=O)O)cc3CCC2)CC1 [Compound 68, 8-(4,4-dimethylcyclohexyl)-9-(4-((1-(3-fluoropropyl)azetidin-3-ylidene)methyl)phenyl)-6,7-dihydro-5H-benzo[7]annulene-3-carboxylic acid]
- % Degradation At 0.3 μM: 86%
- DC50 (4 hours post compound addition, concentration which degrades 50% of the estrogen receptor, read-out: Degradation IC50): 700 pM

Compound: COc1cccc(F)c1C1=C(c2ccc(C=C3CN(CCCF)C3)cc2)c2ccc(C(=O)O)cc2CCC1 [Compound 22, 8-(2-fluoro-6-methoxyphenyl)-9-(4-((1-(3-fluoropropyl)azetidin-3-ylidene)methyl)phenyl)-6,7-dihydro-5H-benzo[7]annulene-3-carboxylic acid]
- % Degradation At 0.3 μM: 94%
- IC50 [1]: 500 pM

Compound: O=C(O)c1ccc2c(c1)CCCC(c1c(Cl)cccc1C(F)(F)F)=C2c1ccc(C=C2CN(CCCF)C2)cc1 [Compound 16, 8-(2-chloro-6-(trifluoromethyl)phenyl)-9-(4-((1-(3-fluoropropyl)azetidin-3-ylidene)methyl)phenyl)-6,7-dihydro-5H-benzo[7]annulene-3-carboxylic acid]
- % Degradation At 0.3 μM: 92%
- IC50 [1]: 300 pM

Compound: Cc1c(Cl)cccc1C1=C(c2ccc(C=C3CN(CCC(F)F)C3)cc2)c2ccc(O)cc2CCC1 [Compound 42, 8-(3-chloro-2-methylphenyl)-9-(4-((1-(3,3-difluoropropyl)azetidin-3-ylidene)methyl)phenyl)-6,7-dihydro-5H-benzo[7]annulen-3-ol]
- % Degradation At 0.3 μM: 53%
- IC50 [1]: 6400 pM

Compound: COc1ccc(C2=C(c3ccc(C=C4CN(CCCF)C4)cc3)c3ccc(C(=O)O)cc3CCC2)c(C(F)(F)F)c1 [Compound 62, 9-(4-((1-(3-fluoropropyl)azetidin-3-ylidene)methyl)phenyl)-8-(4-methoxy-2-(trifluoromethyl)phenyl)-6,7-dihydro-5H-benzo[7]annulene-3-carboxylic acid]
- % Degradation At 0.3 μM: 93%
- IC50 [1]: 500 pM

Compound: O=C(O)c1ccc2c(c1)CCCC(c1cccc3c1CCCO3)=C2c1ccc(C=C2CN(CCCF)C2)cc1 [Compound 64, 8-(chroman-5-yl)-9-(4-((1-(3-fluoropropyl)azetidin-3-ylidene)methyl)phenyl)-6,7-dihydro-5H-benzo[7]annulene-3-carboxylic acid]
- % Degradation At 0.3 μM: 96%
- IC50 [1]: 3100 pM

Compound: CCc1cc(C)cc(CC)c1C1=C(c2ccc(C=C3CN(CCCF)C3)cc2)c2ccc(C(=O)O)cc2CCC1 [Compound 80, 8-(2,6-diethyl-4-methylphenyl)-9-(4-((1-(3-fluoropropyl)azetidin-3-ylidene)methyl)phenyl)-6,7-dihydro-5H-benzo[7]annulene-3-carboxylic acid]
- % Degradation At 0.3 μM: 105%
- IC50 [1]: 1200 pM

Compound: COc1cccc(C2=C(c3ccc(C=C4CN(CCCF)C4)cc3)c3ccc(C(=O)O)cc3CCC2)c1C(F)(F)F [Compound 52, 9-(4-((1-(3-fluoropropyl)azetidin-3-ylidene)methyl)phenyl)-8-(3-methoxy-2-(trifluoromethyl)phenyl)-6,7-dihydro-5H-benzo[7]annulene-3-carboxylic acid]
- % Degradation At 0.3 μM: 94%
- IC50 [1]: 400 pM

Compound: COc1cc(C(F)F)ccc1C1=C(c2ccc(C=C3CN(CCCF)C3)cc2)c2ccc(C(=O)O)cc2CCC1 [Compound 29, 8-(4-(difluoromethyl)-2-methoxyphenyl)-9-(4-((1-(3-fluoropropyl)azetidin-3-ylidene)methyl)phenyl)-6,7-dihydro-5H-benzo[7]annulene-3-carboxylic acid]
- % Degradation At 0.3 μM: 93%
- IC50 [1]: 600 pM

Compound: O=C(O)c1ccc2c(c1)CCCC(c1ccc(F)c(F)c1C(F)(F)F)=C2c1ccc(C=C2CN(CCCF)C2)cc1 [Compound 2, 8-(3,4-difluoro-2-(trifluoromethyl)phenyl)-9-(4-((1-(3-fluoropropyl)azetidin-3-ylidene)methyl)phenyl)-6,7-dihydro-5H-benzo[7]annulene-3-carboxylic acid]
- % Degradation At 0.3 μM: 90%
- IC50 [1]: 1000 pM

Compound: O=C(O)c1ccc2c(c1)CCCC(c1ccccc1CF)=C2c1ccc(C=C2CN(CCCF)C2)cc1 [Compound 32, 8-(2-(fluoromethyl)phenyl)-9-(4-((1-(3-fluoropropyl)azetidin-3-ylidene)methyl)phenyl)-6,7-dihydro-5H-benzo[7]annulene-3-carboxylic acid]
- % Degradation At 0.3 μM: 91%
- IC50 [1]: 300 pM

Compound: COc1cccc(C(F)(F)F)c1C1=C(c2ccc(C=C3CN(CCCF)C3)cc2)c2ccc(C(=O)O)cc2CCC1 [Compound 6, 9-(4-((1-(3-fluoropropyl)azetidin-3-ylidene)methyl)phenyl)-8-(2-methoxy-6-(trifluoromethyl)phenyl)-6,7-dihydro-5H-benzo[7]annulene-3-carboxylic acid]
- % Degradation At 0.3 μM: 91%
- IC50 [1]: 300 pM

Compound: Cc1cccc(Cl)c1C1=C(c2ccc(C=C3CN(CCCF)C3)cc2)c2ccc(C(=O)O)cc2CCC1 [Compound 21, 8-(2-chloro-6-methylphenyl)-9-(4-((1-(3-fluoropropyl)azetidin-3-ylidene)methyl)phenyl)-6,7-dihydro-5H-benzo[7]annulene-3-carboxylic acid]
- % Degradation At 0.3 μM: 93%
- IC50 [1]: 500 pM

Compound: CCc1c(F)cccc1C1=C(c2ccc(C=C3CN(CCCF)C3)cc2)c2ccc(C(=O)O)cc2CCC1 [Compound 39, 8-(2-ethyl-3-fluorophenyl)-9-(4-((1-(3-fluoropropyl)azetidin-3-ylidene)methyl)phenyl)-6,7-dihydro-5H-benzo[7]annulene-3-carboxylic acid]
- % Degradation At 0.3 μM: 92%
- IC50 [1]: 300 pM

Compound: COc1c(C2=C(c3ccc(C=C4CN(CCCF)C4)cc3)c3ccc(C(=O)O)cc3CCC2)cccc1C(F)(F)F [Compound 63, 9-(4-((1-(3-fluoropropyl)azetidin-3-ylidene)methyl)phenyl)-8-(2-methoxy-3-(trifluoromethyl)phenyl)-6,7-dihydro-5H-benzo[7]annulene-3-carboxylic acid]
- % Degradation At 0.3 μM: 94%
- IC50 [1]: 1000 pM

Compound: Cc1cc(C2=C(c3ccc(C=C4CN(CCCF)C4)cc3)c3ccc(C(=O)O)cc3CCC2)c(C)cc1F [Compound 27, 8-(4-fluoro-2,5-dimethylphenyl)-9-(4-((1-(3-fluoropropyl)azetidin-3-ylidene)methyl)phenyl)-6,7-dihydro-5H-benzo[7]annulene-3-carboxylic acid]
- % Degradation At 0.3 μM: 93%
- IC50 [1]: 500 pM
